Laboratory results published in PubChem BioAssay (NCI).
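Growth conditions: 96-well plates. Treatment: test compound, 48 hours, 5 concentrations. Analysis: linear interpolation between bracketing concentrations; unreached endpoints set to highest concentration. At the GI50, growth is halved. At the TGI there is no net growth.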

Tested on: MDA-MB-468 breast
Assay: growth of human tumour cells (NCI), 48 h

| Structure (SMILES) | GI50 | TGI |
| --- | --- | --- |
| COc1ccc(-n2c(SCc3cc(OC)c(OC)c(OC)c3)nc3ccc(C)cc3c2=O)cc1 | 3390 nM | 48300 nM |
| Cn1cc(-c2csc(-c3cccc(F)c3)n2)c2cccnc21 | 20000 nM | 55600 nM |
| CN1C(=O)N(c2ccccc2)C2N=C(N/N=C/c3ccccc3)SC21 (centres undefined) | 510 nM | > 100000 nM |
| Cc1cc(C)cc(Nc2cc(C)nc3nc(C(F)(F)F)nn23)c1 | 8300 nM | > 100000 nM |
| O=C(CCCSc1nc(-c2ccc(Cl)cc2)cc(-c2ccc(Cl)cc2)n1)NO | 1420 nM | 3480 nM |
| Cc1cc(C2CCCCC2)n(O)c(=O)c1 | 1720 nM | 8960 nM |
| C[C@]12CC[C@@H]3c4ccc(O)cc4CC[C@H]3[C@@H]1CC[C@@H]2NS(=O)(=O)c1ccc(C(F)(F)F)cc1 | 2180 nM | 6230 nM |
| COc1ccc(C2CC(=O)c3c(O)c(OC)c(OC)c(OC)c3O2)c(O)c1 (centres undefined) | 83.1 nM | 36900 nM |
| C[C@]12CC[C@@H]3c4ccc(O)cc4C[C@@H](CCCCCCCCCS(=O)CCCC(F)(F)C(F)(F)F)[C@H]3[C@@H]1CC[C@@H]2O (some centres undefined) | > 100000 nM | > 100000 nM |
| Cn1cc(C2=C(c3cn(CCCN=C(N)N)c4ccccc34)C(=O)NC2=O)c2ccccc21 | > 11200 nM | > 25000 nM |
| CN(C)CCNc1ccc2ncc(C#Cc3cncc(C(=O)Nc4ccc(CN5CCN(C)CC5)c(C(F)(F)F)c4)c3)n2n1 | 617 nM | 1410 nM |
| COc1ccc(S(=O)(=O)N(Cc2ccc3c(n2)C=CC(C)(C)O3)C2CCC2)cc1OC | < 10 nM | < 10 nM |
| NC(N)=NC(N)=Nc1cc2ccccc2c2ccccc12 | 2810 nM | 14300 nM |
| COc1ccc(C(=O)/C=C/c2cccnc2Nc2cc(OC)c(OC)c(OC)c2)cc1 | 551 nM | 2760 nM |
| Cc1[nH]c(N=Nc2ccccc2)nc1N=Nc1ccccc1 | 1920 nM | 5990 nM |
| COc1cc([C@@H]2c3cc4c(cc3C(O[C@@H]3O[C@@H]5CO[C@@H](c6cccs6)OC5[C@H](O)[C@H]3O)C3COC(=O)[C@@H]32)OCO4)cc(OC)c1O (some centres undefined) | 91.4 nM | 302 nM |
| Nc1nccc(-c2c(-c3ccc(F)cc3)ncn2CCCN2CCOCC2)n1 | > 6390 nM | > 25000 nM |
| CCCCC/C=C/C/C=C/CCCCCCCC1=NC(C)(C)CN1C(C)C | 1370 nM | 2720 nM |

| Structure (SMILES) | GI50 | TGI |
| --- | --- | --- |
| COc1ccc(-c2nc(-c3nc4ccc(C)cc4[nH]3)c3ccccn23)cc1 | 2320 nM | 7130 nM |
| CCCCNC(=O)NS(=O)(=O)c1ccc(N2N=C(c3ccc(C)cc3C)CC2c2ccc(N(C)C)cc2)cc1 (centres undefined) | 2220 nM | 5820 nM |
| Cn1cc(C2=C(c3cn(C)c4c(N)cccc34)C(=O)NC2=O)c2ccccc21 | 1280 nM | > 25000 nM |
| COC(=O)[C@]12CCC(C)(C)C[C@H]1C1=CC[C@@H]3[C@@]4(C)C/C(=C/c5cccnc5)C(=O)C(C)(C)[C@@H]4CC[C@@]3(C)[C@]1(C)CC2 | 12300 nM | 47200 nM |
| COc1ccc(OC(=O)O[C@H]2[C@H](O[C@H]3[C@@H](O)COC(O[C@H]4C[C@H]5[C@@H]6CC=C7C[C@@H](O)CC[C@]7(C)[C@H]6CC[C@]5(C)[C@H]4[C@H](C)C(=O)CCC(C)C)[C@@H]3OC(C)=O)OC[C@@H](O)[C@@H]2O)cc1 (some centres undefined) | 37.3 nM | 4940 nM |
| COc1cc(-c2c(C#N)c(N)n3c(nc4ccccc43)c2C#N)cc(Br)c1OC | 5540 nM | > 100000 nM |
| COc1ccc(-c2cc3c(nn2)-c2ccccc2C3=O)cc1 | > 100000 nM | > 100000 nM |
| CC(C)CSc1nc(Nc2ccccc2)c(C#N)c(-c2ccc(F)cc2)n1 | 3070 nM | 17400 nM |
| CCOC(=O)/C(O)=C(/C=NC(=S)c1ccncc1)C(=O)OCC | > 100000 nM | > 100000 nM |
| O=C(C[C@@H](C(=O)NCc1cccc(C(F)(F)F)c1)N1C(=O)[C@@H](N2C(=O)OC[C@@H]2c2ccccc2)[C@H]1/C=C/c1ccccc1)NC1CCN(Cc2ccccc2)CC1 | 2660 nM | 18400 nM |
| CC12CCCC(CC(=O)c3[nH]c4ccccc4c31)C2 (centres undefined) | 375 nM | 4160 nM |
| CC[C@H](C)[C@H](NC(=O)[C@H]1CCCCN1C)C(=O)N(C)[C@H](CCc1nc(C(=O)N[C@@H](Cc2ccccc2)C[C@H](C)C(=O)OC)cs1)C(C)C | 69.6 nM |  |
| C=C1C(=O)O[C@H]2[C@H]1CC/C(COC(=O)/C=C\C(=O)NCc1ccc(Cn3c(=O)sn(-c4ccc(C#N)cc4)c3=O)cc1)=C\CC[C@@]1(C)O[C@@H]21 | 735 nM | 1670 nM |
| COc1cccc(NCc2nnc(Nc3ccc(Cl)cc3)c3ccccc23)c1 | 1050 nM | 4730 nM |
| CCCNC(=S)N/N=C(\C)c1ccccn1 | < 10 nM | 109 nM |
| COc1cc(Cn2c(-c3ccccc3)cc3c2-c2oncc2CC3)cc(OC)c1OC | 298 nM | 2210 nM |
| C[C@]12CC[C@@H]3c4ccc(Oc5nc(N6CC6)nc(N6CC6)n5)cc4CC[C@H]3[C@@H]1CCC2=O | 2000 nM | 12600 nM |
